Measured values reported in patent US11103603B2, “18F-labeled compounds for PET imaging and uses thereof” (The University of North Carolina at Chapel Hill, priority 2016, dated 2021).

Experiments:
IDO1 enzyme = IDO1 enzyme (Homo sapiens, UniProt P14902); experiment: IDO1 enzyme assay (substrate test, absorbance at 490 nm); assay type: biochemical; settings: for substrate to IDO1 enzyme: FIG. 7A; for absorbance at 490 nm: reaction containing the compound, results from 3 independent assays, control reaction had no absorbance
IDO1 enzyme, sequence (P14902 whole entry, species assumed): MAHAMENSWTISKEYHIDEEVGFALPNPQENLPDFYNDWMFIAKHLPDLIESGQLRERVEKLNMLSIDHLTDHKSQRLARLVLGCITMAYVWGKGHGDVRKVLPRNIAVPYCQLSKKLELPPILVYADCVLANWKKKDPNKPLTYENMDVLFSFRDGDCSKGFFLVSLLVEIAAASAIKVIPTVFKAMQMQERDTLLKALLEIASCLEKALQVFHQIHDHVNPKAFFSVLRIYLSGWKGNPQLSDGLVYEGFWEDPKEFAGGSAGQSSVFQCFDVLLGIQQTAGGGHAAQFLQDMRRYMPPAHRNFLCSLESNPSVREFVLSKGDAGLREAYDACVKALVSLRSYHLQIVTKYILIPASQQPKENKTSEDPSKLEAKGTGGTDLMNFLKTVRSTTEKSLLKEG
Experimental: (§1) (D) Decay-corrected whole-body small PET images of B16F10 melanoma after 30 min injection of 5-[^18]F-AMT.
(§2) Among the agents synthesized, 5-[^18F]F-AMT was first evaluated in vitro. In order to ensure that 5-[^18F]F-AMT could be used for IDO imaging, cell- and enzyme-based assays were performed. It was first tested whether 5-[^18F]F-AMT is a substrate for the IDO enzyme, and the result compared with that of the natural substrate Trp and a known IDO agent, α-methyl-L-tryptophan (AMT). […] Therefore, a cell-based assay was performed to further evaluate the agents. The uptake of 5-[^18F]F-AMT in IFNγ-treated cells was 3.474±0.6451% compared with 0.50±0.28% in control cells after 1 h incubation (p<0.001) (FIG. 7C). […] The serotonin pathway is a competitive metabolic route for Trp and its derivatives. In the first step Tph adds a hydroxyl group to position 5 of the indole ring. It was evaluated whether the introduction of fluorine at the 5-position would affect metabolism by Tph. As shown in) (FIG. 7B), immediately after adding L-Trp to the reaction system containing the tryptophan hydroxylase enzyme, the fluorescence signal increased from a baseline value of −0.266 to 40.885 and reached a peak value 58.350 at 26 min. Immediately after adding AMT to the reaction system, the fluorescence signal increased from a baseline value of −0.312 to 21.145 and reached a peak value of 36.607 at 34 min.

[1] = system: tryptophan hydroxylase enzyme; experiment: Protein based tryptophan hydroxylase (Tph) assay, fluorescence signal; assay type: biochemical; settings: for substrate quality for Tph: compared with Trp and AMT; for fluorescence signal immediately after adding compound: immediately after adding to reaction system containing tryptophan hydroxylase; for fluorescence signal peak value: peak of time course
Experimental: as §2

HeLa cells = experiment: Cell uptake of tracer in HeLa cells with or without IFNγ treatment and NLG919; assay type: cell-based
Experimental: as §1, §2

B16F10 melanoma = experiment: Small animal PET imaging of B16F10 melanoma tumor xenograft mouse model; assay type: in vivo; settings: 200 μCi injected, image at 30 min
Experimental: as §1
FIGS. 8A-8B show (A) decay-corrected whole-body small PET images of B16F10 melanoma 0.5 h, 1.4 h, and 20 h after injection of ^124I-AMT; (B) decay-corrected whole-body small PET images of B16F10 melanoma 50 min after injection of ^18F—N-Me-Trp.
A tumor xenograft mouse model was produced with a B16F10 melanoma. 200 μCi of 5-^18F-AMT was injected and a PET image was obtained at 30 min. (FIG. 7D).
To test the effectiveness of therapeutic compounds of the invention, a tumor […] xenograft mouse model was produced with a B16F10 melanoma. 1 (FIG. 8A) or ^18F—N-Me-Trp (FIG. 8B) were injected in the tail vein and PET images obtained.

| Compound | substrate to IDO1 enzyme (IDO1 enzyme) | absorbance at 490 nm (IDO1 enzyme) | time at which peak fluorescence was reached [1] [min] | substrate quality for Tph [1] | fluorescence signal immediately after adding compound [1] | fluorescence signal peak value [1] | increase of HeLa cells uptake after IFN-γ treatment (HeLa cells; HeLa cells, IFN-γ treated vs untreated) [times] | uptake in IFNγ-treated cells incubated with NLG919 (HeLa cells; IFNγ-treated cells + IDO1 inhibitor NLG919) [%] | uptake in IFNγ-treated cells (HeLa cells; IFNγ-treated cells, 1 h incubation) [%] | uptake in control cells (HeLa cells; control cells (no IFNγ), 1 h incubation) [%] | PET image of tumor (B16F10 melanoma) |
| --- | --- | --- | --- | --- | --- | --- | --- | --- | --- | --- | --- |
| CC(N)(Cc1c[nH]c2ccc(F)cc12)C(=O)O (stereo not shown) [5-F-AMT] | substrates | 0.16±0.03 | 25 | not a good substrate | 5.635 | 8.176 |  |  |  |  |  |
| CC(N)(Cc1c[nH]c2ccc([18F])cc12)C(=O)O (stereo not shown) [5-[^18F]F-AMT] |  |  |  | worse substrate |  |  | 7 | 0.88±0.12 | 3.474±0.6451 | 0.50±0.28 | clearly shows the tumor |
| C[C@](N)(Cc1c[nH]c2ccccc12)C(=O)O [AMT, α-methyl-L-tryptophan] | substrates | 0.19±0.02 | 34 |  | 21.145 | 36.607 |  |  |  |  |  |
| N[C@@H](Cc1c[nH]c2ccccc12)C(=O)O [L-Trp, L-tryptophan] | substrates | 0.21±0.01 | 26 |  | 40.885 | 58.350 |  |  |  |  |  |
